For one assay, the system named is p-EGFR. Briefly: Western blotting in A549 cells. It is filed as cell-based, human. To be noted: Western blot, vs untreated control. The text has this: (§1) Figure 3. […] (B) The relative protein expression level of p-EGFR normalised with total EGFR was quantified by the Image J software (C) The relative protein expression level of p-VEGFR-2 normalised with total VEGFR-2. The values are expressed as the mean ± SEM based on three different experiments. ***p < 0.001 indicate a significant difference compared with control.
(§2) The protein extraction and quantification were done as previously described.
A general note: In western blotting, separated proteins are transferred to a membrane and probed.

For a further assay, the system named is p-VEGFR-2. Briefly: Western blotting in A549 cells. It is filed as cell-based, human. The note with it: Western blot, vs untreated control.
Description: as §1, §2

The subject of a further assay is A549 cells. Description: Annexin V-FITC/PI apoptosis assay. To be noted: A549, 5 μM, 24 h; control 5.4% (10b), […] (10d). The assay is classed as cell-based, human. On the procedure:
Figure 7. Apoptotic effect of compounds 10b and 10d on A549 cells. (A) Representative cytograms of apoptotic A549 cells stimulated with 0 (control), 2.5 or 5 μM 10b or 10d, for 24 h. The lower-right (annexin V + PI- cells) and the upper-right (annexin V + PI + cells) quadrants show early and late apoptotic cells, and the lower-left (annexin V-PI- cells) and the upper-left ([…]) quadrants represent viable and necrotic cells, respectively. (B) Quantification of annexin V-positive apoptotic cells upon stimulation with 10b or 10d. The values are the means ± SEM of three different experiments. *p < 0.05 and *p < 0.01 indicate significant differences compared with control.
DNA content was measured using 7-aminoactinmycin D (7AAD) (Biotium, Inc., Hayward, CA) staining and is commonly used for cell cycle phase analysis as previously described. Apoptosis was evaluated using the annexin V/propidium iodide (PI) staining kit (BioLegend, San Diego, CA) according to the manufacturer’s instructions and as previously described.

Assay [1] deals with NCI-H1975 cells (EGFR L858R/T790M). Briefly: MTT assay on EGFR-mutated NSCLC cells. It is filed as cell-based. To be noted: Homo sapiens, EGFR L858R/T790M double mutation. On the procedure: (§3) All chemicals used in this study were analytical or cell-culture grade.
(§4) Cytotoxicity was measured using the MTT assay. […] The medium was aspirated and 150 μL DMSO was added to solubilise MTT formazan crystals. The plates were then shaken, and the optical density was determined at 570 nm using an ELISA plate reader (Model 550, Bio-Rad, Hercules, CA). At least three independent experiments were performed.
On the technique in general: Formazan colour is commonly taken as a measure of viable cells.

The test system of assay [2] is NCI-H1650 cells (EGFR exon19 deletion delE746-A750). Description: MTT assay on EGFR-mutated NSCLC cells. The assay is classed as cell-based. To be noted: Homo sapiens. On the procedure: as §3, §4
For assay [3], the target named is T1, recombinant human VEGFR-2/KDR (Homo sapiens, UniProt P35968).
T1 construct: purchased
T1 sequence (P35968 20-1356): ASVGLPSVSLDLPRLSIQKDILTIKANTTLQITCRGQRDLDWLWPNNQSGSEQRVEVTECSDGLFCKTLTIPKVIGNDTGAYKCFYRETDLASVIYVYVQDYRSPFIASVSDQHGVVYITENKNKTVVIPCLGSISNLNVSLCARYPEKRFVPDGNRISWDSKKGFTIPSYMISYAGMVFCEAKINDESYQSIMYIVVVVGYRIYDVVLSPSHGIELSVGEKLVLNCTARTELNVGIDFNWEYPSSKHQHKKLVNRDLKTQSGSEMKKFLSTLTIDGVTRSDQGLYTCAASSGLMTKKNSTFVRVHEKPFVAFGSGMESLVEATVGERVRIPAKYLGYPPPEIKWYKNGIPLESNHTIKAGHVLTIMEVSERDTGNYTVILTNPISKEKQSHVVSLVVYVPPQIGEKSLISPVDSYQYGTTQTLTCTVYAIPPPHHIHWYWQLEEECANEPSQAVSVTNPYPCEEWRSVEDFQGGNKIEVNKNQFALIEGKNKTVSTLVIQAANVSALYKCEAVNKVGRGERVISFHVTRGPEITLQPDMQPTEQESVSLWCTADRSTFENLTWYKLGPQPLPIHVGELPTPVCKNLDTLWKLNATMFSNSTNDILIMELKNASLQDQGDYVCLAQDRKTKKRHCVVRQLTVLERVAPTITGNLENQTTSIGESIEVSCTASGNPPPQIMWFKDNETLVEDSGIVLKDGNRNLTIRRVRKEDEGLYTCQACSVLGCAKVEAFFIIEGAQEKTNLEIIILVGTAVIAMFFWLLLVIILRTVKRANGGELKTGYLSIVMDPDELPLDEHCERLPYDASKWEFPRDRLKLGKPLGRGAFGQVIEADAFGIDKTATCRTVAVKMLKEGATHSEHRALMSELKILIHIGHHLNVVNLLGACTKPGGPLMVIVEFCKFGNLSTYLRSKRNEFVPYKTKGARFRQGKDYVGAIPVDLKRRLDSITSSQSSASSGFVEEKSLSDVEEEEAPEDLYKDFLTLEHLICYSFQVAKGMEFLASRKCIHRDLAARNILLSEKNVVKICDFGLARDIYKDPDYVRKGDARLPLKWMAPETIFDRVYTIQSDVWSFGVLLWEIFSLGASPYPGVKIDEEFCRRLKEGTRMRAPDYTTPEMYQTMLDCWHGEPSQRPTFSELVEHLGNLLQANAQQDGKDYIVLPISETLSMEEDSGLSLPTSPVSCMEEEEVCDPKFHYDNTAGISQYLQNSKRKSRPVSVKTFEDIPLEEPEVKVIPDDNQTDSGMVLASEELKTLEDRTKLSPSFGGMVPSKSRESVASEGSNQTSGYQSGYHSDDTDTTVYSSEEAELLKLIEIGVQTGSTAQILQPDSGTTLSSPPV
Briefly: VEGFR-2 kinase assay (VEGFR-2/KDR ELISA kit). The assay is classed as biochemical. The note with it: read-out: IC50 (nM) ± SEM VEGFR-2. As for the experimental part:
(§5) The EGFR kinase assay was carried out in 96-well plates coated with PGT (poly l-glutamic acid l-tyrosine, 4:1, Sigma Aldrich, St. Louis, MO) as previously described. IC50 values were calculated using GraphPad Prism 5. Each experiment was carried out at least three times. The VEGFR-2 kinase assay was carried out in 96-well streptavidin coated plate using recombinant human VEGFR-2/KDR ELISA kit according to manufacturer’s instructions.

Another assay addresses CDK1 (Homo sapiens, UniProt P06493). Briefly: Kinase selectivity profiling, Z'-LYTE FRET.
For a further assay, the target named is TEK (Homo sapiens, UniProt Q02763). Description: Kinase selectivity profiling, Z'-LYTE FRET.
TEK, sequence (Q02763 23-1124): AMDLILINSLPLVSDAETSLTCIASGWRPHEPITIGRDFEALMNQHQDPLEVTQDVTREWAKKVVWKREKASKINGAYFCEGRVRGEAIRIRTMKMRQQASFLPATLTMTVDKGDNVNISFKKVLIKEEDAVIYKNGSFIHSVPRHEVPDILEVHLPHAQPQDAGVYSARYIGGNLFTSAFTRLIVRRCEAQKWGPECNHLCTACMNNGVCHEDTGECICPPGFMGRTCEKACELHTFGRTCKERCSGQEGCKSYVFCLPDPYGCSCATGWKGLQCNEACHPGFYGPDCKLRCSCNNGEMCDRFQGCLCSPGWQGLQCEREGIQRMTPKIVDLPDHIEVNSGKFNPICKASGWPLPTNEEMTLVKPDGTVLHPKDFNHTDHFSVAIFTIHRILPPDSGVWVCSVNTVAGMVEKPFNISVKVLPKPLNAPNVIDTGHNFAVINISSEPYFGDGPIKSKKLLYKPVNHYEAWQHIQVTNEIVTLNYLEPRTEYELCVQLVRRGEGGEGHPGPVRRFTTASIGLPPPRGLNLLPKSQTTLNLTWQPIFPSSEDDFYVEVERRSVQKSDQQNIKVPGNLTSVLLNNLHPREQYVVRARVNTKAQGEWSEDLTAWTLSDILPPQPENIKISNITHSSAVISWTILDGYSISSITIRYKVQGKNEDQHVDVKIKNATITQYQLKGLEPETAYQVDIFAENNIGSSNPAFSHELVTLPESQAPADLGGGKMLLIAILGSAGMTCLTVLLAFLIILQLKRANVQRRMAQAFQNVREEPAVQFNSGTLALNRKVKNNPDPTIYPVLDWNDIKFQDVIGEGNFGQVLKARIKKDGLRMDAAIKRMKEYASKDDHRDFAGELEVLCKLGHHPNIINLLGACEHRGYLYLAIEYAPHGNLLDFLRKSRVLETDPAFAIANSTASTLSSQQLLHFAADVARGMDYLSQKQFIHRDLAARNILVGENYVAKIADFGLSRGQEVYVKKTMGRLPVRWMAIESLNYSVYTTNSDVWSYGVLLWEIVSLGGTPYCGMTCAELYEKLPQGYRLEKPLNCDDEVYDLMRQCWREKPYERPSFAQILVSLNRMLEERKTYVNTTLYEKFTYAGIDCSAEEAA
The next assay concerns the target EGFR (Homo sapiens, UniProt P00533). Briefly: EGFR kinase assay (PGT-coated 96-well plates). The assay is classed as biochemical. To be noted: read-out: IC50 (nM) ± SEM EGFR. On the procedure:
as §5

The target of the next assay is SYK (Homo sapiens, UniProt P43405). Briefly: Kinase selectivity profiling, Z'-LYTE FRET.
In a further assay the test system is A549 cells migration. Description: Scratch wound healing assay. The assay is classed as cell-based, human. To be noted: 36 h, vs control. On the procedure: Figure 5. Effect of compounds 10b and 10d on A549 cells migration. […] Representative images of scratched areas in confluent A549 cell layers.
A549 cells were seeded and incubated in 6-well cell culture plates till reaching confluence. Then, the confluent monolayers were scratched to form a “wound” using a sterile needle. The cells were treated with either vehicle as a control, 10b or 10d for 36 h. The images were recorded at 0 and 36 h to monitor the migration of cells into the wounded area using a light photomicroscope.

Another assay addresses CLK1 (Homo sapiens, UniProt P49759). Description: Kinase selectivity profiling, Z'-LYTE FRET.

Structures are written as SMILES.

The record followed here is article PMC9415638, “Discovery of novel thiazolyl-pyrazolines as dual EGFR and VEGFR-2 inhibitors endowed with in vitro antitumor activity towards non-small lung cancer” (Journal of Enzyme Inhibition and Medicinal Chemistry, 2022).

As a reminder, the IC50 is the concentration that gives 50% inhibition.

CDK1, sequence (P06493 whole entry): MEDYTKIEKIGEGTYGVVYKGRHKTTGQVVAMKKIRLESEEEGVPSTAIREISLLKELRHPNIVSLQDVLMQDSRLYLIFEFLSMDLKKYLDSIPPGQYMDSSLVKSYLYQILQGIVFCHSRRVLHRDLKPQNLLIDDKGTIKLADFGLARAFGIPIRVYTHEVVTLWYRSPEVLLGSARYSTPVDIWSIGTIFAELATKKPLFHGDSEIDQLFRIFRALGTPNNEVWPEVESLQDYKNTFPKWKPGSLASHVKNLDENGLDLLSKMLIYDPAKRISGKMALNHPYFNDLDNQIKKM
CDK1, sequence (P14635 whole entry partner): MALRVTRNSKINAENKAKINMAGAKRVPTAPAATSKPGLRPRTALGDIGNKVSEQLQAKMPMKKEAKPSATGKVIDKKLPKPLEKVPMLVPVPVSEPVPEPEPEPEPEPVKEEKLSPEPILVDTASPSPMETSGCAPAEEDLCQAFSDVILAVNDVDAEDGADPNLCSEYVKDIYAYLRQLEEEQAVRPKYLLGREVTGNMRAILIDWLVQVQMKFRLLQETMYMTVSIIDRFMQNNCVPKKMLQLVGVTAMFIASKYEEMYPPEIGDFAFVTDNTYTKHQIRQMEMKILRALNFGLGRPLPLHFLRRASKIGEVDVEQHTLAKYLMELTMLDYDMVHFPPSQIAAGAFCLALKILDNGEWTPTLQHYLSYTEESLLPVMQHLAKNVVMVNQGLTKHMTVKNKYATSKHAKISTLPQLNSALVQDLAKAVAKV
EGFR, sequence (P00533 25-1210): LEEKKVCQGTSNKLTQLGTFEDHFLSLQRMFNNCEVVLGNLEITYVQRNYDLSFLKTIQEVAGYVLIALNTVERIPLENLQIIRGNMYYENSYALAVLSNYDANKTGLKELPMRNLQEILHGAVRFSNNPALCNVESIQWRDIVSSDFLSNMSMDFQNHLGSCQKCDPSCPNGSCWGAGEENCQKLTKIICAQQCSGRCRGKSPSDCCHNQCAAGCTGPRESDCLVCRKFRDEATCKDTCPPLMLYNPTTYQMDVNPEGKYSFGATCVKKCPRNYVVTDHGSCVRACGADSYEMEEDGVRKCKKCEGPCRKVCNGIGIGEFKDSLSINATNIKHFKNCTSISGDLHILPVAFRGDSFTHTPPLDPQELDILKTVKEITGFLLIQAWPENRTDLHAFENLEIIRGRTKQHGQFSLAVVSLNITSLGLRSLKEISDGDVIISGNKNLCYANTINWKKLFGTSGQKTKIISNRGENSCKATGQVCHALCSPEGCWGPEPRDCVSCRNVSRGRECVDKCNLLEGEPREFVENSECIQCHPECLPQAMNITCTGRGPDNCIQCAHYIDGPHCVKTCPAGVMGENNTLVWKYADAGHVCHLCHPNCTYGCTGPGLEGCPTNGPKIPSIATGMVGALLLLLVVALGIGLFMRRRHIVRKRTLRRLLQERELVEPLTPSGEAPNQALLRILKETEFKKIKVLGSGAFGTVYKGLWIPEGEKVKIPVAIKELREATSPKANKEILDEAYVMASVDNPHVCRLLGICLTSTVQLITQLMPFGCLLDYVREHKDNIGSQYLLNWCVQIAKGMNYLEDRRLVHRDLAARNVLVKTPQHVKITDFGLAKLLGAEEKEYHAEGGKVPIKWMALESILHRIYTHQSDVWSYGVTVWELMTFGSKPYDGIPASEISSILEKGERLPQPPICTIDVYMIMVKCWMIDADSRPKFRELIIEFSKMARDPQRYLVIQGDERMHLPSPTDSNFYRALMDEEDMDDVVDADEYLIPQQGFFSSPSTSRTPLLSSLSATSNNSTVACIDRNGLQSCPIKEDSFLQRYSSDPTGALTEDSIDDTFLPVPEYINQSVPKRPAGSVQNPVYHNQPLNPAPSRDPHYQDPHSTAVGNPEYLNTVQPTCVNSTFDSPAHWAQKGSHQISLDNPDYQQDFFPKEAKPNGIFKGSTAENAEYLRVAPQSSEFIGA
CLK1, sequence (P49759 whole entry): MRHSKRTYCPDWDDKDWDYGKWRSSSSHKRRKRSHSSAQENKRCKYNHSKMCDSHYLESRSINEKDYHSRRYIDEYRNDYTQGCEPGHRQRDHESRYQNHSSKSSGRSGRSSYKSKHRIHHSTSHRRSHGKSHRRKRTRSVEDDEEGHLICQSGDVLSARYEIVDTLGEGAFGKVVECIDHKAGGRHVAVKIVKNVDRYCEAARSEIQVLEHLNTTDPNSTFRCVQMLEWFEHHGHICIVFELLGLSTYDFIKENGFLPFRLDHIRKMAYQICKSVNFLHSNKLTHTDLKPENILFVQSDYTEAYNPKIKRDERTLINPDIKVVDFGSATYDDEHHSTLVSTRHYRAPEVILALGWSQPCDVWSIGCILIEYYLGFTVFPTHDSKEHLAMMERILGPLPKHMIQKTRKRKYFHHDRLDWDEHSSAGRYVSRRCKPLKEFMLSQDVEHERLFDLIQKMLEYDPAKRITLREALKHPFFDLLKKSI

As for `CCOC(=O)c1sc(N2N=C(c3ccc(Cl)cc3Cl)CC2c2ccc(OC)cc2)nc1C` (stereo not drawn) [Compound 10b, Ethyl-2-(3-(2,4-dichlorophenyl)-5-(4-methoxyphenyl)-4,5-dihydro-1H-pyrazol-1-yl)-4-methylthiazole-5-carboxylate], in the assay with p-EGFR, the “protein expression level of p-EGFR” value is “significantly downregulated”. Further, the “protein expression level of p-VEGFR-2” value with p-VEGFR-2 is “significantly downregulated”. Besides, the “annexin V-positive apoptotic cells” value with A549 cells came out at 16.5%. For the same compound, the 50% inhibitory concentration (IC50) in [1] is 6.2 ± 0.9 µM; in [2], 5.7 ± 0.5 µM; in assay [3] it was 78.4 ± 1.5 nM; against CDK1 it was 0.31 ± 0.012 µM; on TEK it was more than 2 µM; on EGFR, 40.7 ± 1 nM. For the same compound, the results for the IC50 against SYK and against CLK1 were 1.12 ± 0.022 µM and 1.07 ± 0.054 µM, respectively. The “A549 cancer cell migration” value in the assay with A549 cells migration is reported as “effective in reducing the cancer cell migration”.

In the case of `COc1ccc(C2CC(c3ccc(Cl)cc3Cl)=NN2c2nc(C)c(C(=O)Nc3ccccc3)s2)cc1OC` (stereo not drawn) [Compound 10d, 2-(3-(2,4-Dichlorophenyl)-5-(3,4-dimethoxyphenyl)-4,5-dihydro-1H-pyrazol-1-yl)-4-methyl-N-phenylthiazole-5-carboxamide], the “protein expression level of p-EGFR” value in the assay with p-EGFR is given as “significantly downregulated”. The “protein expression level of p-VEGFR-2” value in the assay on p-VEGFR-2 was “significantly downregulated”. For the same compound, in the assay with A549 cells, the “annexin V-positive apoptotic cells” value is on record as 28.5%. Further, the 50% inhibitory concentration (IC50) is 4.4 ± 0.6 µM in [1]; 3.5 ± 0.2 µM in [2]; 43 ± 2.4 nM in assay [3]; 0.245 ± 0.007 µM against CDK1; more than 2 µM at TEK; 32.5 ± 2.2 nM at EGFR. The values for the IC50 against SYK and against CLK1 were 0.87 ± 0.031 µM and 0.798 ± 0.019 µM, respectively. The “A549 cancer cell migration” value in the assay with A549 cells migration is listed as “effective in reducing the cancer cell migration”.
